Consider 21 compounds from US12679824B2 (Hoffmann-La Roche Inc., priority 2020, dated 2026).

The subject of the assay is Acinetobacter baumannii ATCC17961. Briefly: 90% Growth Inhibitory Concentration (IC90) determination, antimicrobial susceptibility testing. In kind it is cell-based. To be noted: Acinetobacter baumannii, ATCC17961, 16 h, Acinetobacter baumannii ATCC17961; Iso-Sensitest broth; growth by optical density at 600 nm over 16h; concentration inhibiting 90% of the growth; read-out: ATCC 17961 IC90. As to the method: Antimicrobial Susceptibility Testing:
90% Growth Inhibitory Concentration (IC90) Determination
The in vitro antimicrobial activity of the compounds was determined according to the following procedure:
The assay used a 10-points Iso-Sensitest broth medium to measure quantitatively the in vitro activity of the compounds against Acinetobacter baumannii ATCC17961.
Stock compounds in DMSO were serially twofold diluted (e.g. range from 50 to 0.097 μM final concentration) in 384 wells microtiter plates and inoculated with 49 μl the bacterial suspension in Iso-Sensitest medium to have a final cell concentration of ~5×10^(5) CFU/ml in a final volume/well of 50 ul/well. Microtiter plates were incubated at 35±2° C.
Bacterial cell growth was determined with the measurement of optical density at λ=600 nm each 20 minutes over a time course of 16h. Growth inhibition was calculated during the logarithmic growth of the bacterial cells with determination of the concentration inhibiting 50% (IC50) and 90% (IC90) of the growth.
Table 1 provides the 90% growth inhibitory concentrations (IC90) in micromoles per liter of the compounds of present invention obtained against the strain Acinetobacter baumannii ATCC17961.
With `CN(C(=O)c1ccc(NC(=O)c2ncc(-c3cn(-c4ccc(N)cn4)nc3C(F)(F)F)n2C)cc1Cl)C1CCN(C(=O)[C@@H]2C[C@@H](O)CN2)CC1` [Example Z35, 5-[1-(5-amino-2-pyridyl)-3-(trifluoromethyl)pyrazol-4-yl]-N-[3-chloro-4-[[1-[(2S,4R)-4-hydroxyprolyl]-4-piperidyl]-methyl-carbamoyl]phenyl]-1-methyl-imidazole-2-carboxamide], the IC90 (in general, the concentration at which the effect reaches the 90% level) was found to be 270 nM.

For `Cn1c(-c2cn(-c3ccc(N)cn3)nc2C(F)(F)F)cnc1C(=O)Nc1ccc(C(=O)N2CC3CCCC(C2)N3)c(Cl)c1` [Example Z53, 5-[1-(5-amino-2-pyridyl)-3-(trifluoromethyl)pyrazol-4-yl]-N-[3-chloro-4-(3,9-diazabicyclo[3.3.1]nonane-3-carbonyl)phenyl]-1-methyl-imidazole-2-carboxamide], the 90% effect concentration (IC90) is 500 nM. Then `CN(C)c1ccc(-n2cc(-c3cnc(C(=O)Nc4ccc(C(=O)N5CCN(C(=O)C6CCNCC6)CC5)c(Cl)c4)n3C)c(C(F)(F)F)n2)nn1` [Example B3, N-[3-chloro-4-[4-(piperidine-4-carbonyl)piperazine-1-carbonyl]phenyl]-5-[1-[6-(dimethylamino)pyridazin-3-yl]-3-(trifluoromethyl)pyrazol-4-yl]-1-methyl-imidazole-2-carboxamide], with 480 nM. Then `Cn1c(-c2cn(-c3ccc(N)cn3)nc2C(F)(F)F)cnc1C(=O)Nc1ccc(C(=O)N2CC[C@H](CNC(=O)[C@@H]3C[C@@H](O)CN3)C2)c(Cl)c1` [Example Z44, 5-[1-(5-amino-2-pyridyl)-3-(trifluoromethyl)pyrazol-4-yl]-N-[3-chloro-4-[(3R)-3-[[[(2S,4R)-4-hydroxyprolyl]amino]methyl]pyrrolidine-1-carbonyl]phenyl]-1-methyl-imidazole-2-carboxamide], with 810 nM. In the case of `Cn1c(-c2cn(-c3ccc(N)cn3)nc2C(F)(F)F)cnc1C(=O)Nc1ccc(C(=O)NC2CN(C(=O)[C@@H]3C[C@@H](O)CN3)CC2CO)c(Cl)c1` (stereo partly drawn) [Example Z27, 5-[1-(5-amino-2-pyridyl)-3-(trifluoromethyl)pyrazol-4-yl]-N-[3-chloro-4-[[1-[(2S,4R)-4-hydroxyprolyl]-4-methylol-pyrrolidin-3-yl]carbamoyl]phenyl]-1-methyl-imidazole-2-carboxamide], the IC90 is 1180 nM.

On to `Cn1c(-c2cn(-c3ccc(N)cn3)nc2C(F)(F)F)cnc1C(=O)Nc1ccc(C(=O)N2CC3CN(C(=O)[C@@H]4C[C@@H](O)CN4)CC3C2)c(Cl)c1` (stereo partly drawn) [Example Z37, 5-[1-(5-amino-2-pyridyl)-3-(trifluoromethyl)pyrazol-4-yl]-N-[3-chloro-4-[5-[(2S,4R)-4-hydroxyprolyl]-1,3,3a,4,6,6a-hexahydropyrrolo[3,4-c]pyrrole-2-carbonyl]phenyl]-1-methyl-imidazole-2-carboxamide], for which the concentration for an effect of 90% (IC90) was found to be 500 nM. Take `Cn1c(-c2cn(-c3ccc(N)cn3)nc2C(F)(F)F)cnc1C(=O)Nc1ccc(C(=O)NCCOCCN)c(Cl)c1` [Example Z21, N-[4-[2-(2-aminoethoxy)ethylcarbamoyl]-3-chloro-phenyl]-5-[1-(5-amino-2-pyridyl)-3-(trifluoromethyl)pyrazol-4-yl]-1-methyl-imidazole-2-carboxamide]: the IC90 stood at 670 nM. Under `Cn1c(-c2cn(-c3ccc(N)cn3)nc2C(F)(F)F)cnc1C(=O)Nc1ccc(C(=O)N2CCNCC2)c(Cl)c1` [Example Z32, 5-[1-(5-amino-2-pyridyl)-3-(trifluoromethyl)pyrazol-4-yl]-N-[3-chloro-4-(piperazine-1-carbonyl)phenyl]-1-methyl-imidazole-2-carboxamide] stands 390 nM; under `Cn1c(-c2cn(-c3ccc(N)cn3)nc2C(F)(F)F)cnc1C(=O)Nc1ccc(C(=O)NCCN2CCNCC2)c(Cl)c1` [Example Z65, 5-[1-(5-amino-2-pyridyl)-3-(trifluoromethyl)pyrazol-4-yl]-N-[3-chloro-4-(2-piperazinoethylcarbamoyl)phenyl]-1-methyl-imidazole-2-carboxamide], 760 nM; under `CNc1ccc(-n2cc(-c3cnc(C(=O)Nc4ccc(C(=O)N5CCN(C(=O)[C@@H]6C[C@@H](O)CN6)CC5)c(Cl)c4)n3C)c(C(F)(F)F)n2)nc1` [Example D7, N-[3-chloro-4-[4-[(2S,4R)-4-hydroxypyrrolidine-2-carbonyl]piperazine-1-carbonyl]phenyl]-1-methyl-5-[1-[5-(methylamino)-2-pyridyl]-3-(trifluoromethyl)pyrazol-4-yl]imidazole-2-carboxamide], 280 nM. Then `Cn1c(-c2cn(-c3ccc(N)cn3)nc2C(F)(F)F)cnc1C(=O)Nc1ccc(C(=O)NCCCCCN)c(Cl)c1` [Example Z28, N-[4-(5-aminopentylcarbamoyl)-3-chloro-phenyl]-5-[1-(5-amino-2-pyridyl)-3-(trifluoromethyl)pyrazol-4-yl]-1-methyl-imidazole-2-carboxamide], with 360 nM; and `Cn1c(-c2cn(-c3ccc(N)cn3)nc2C(F)(F)F)cnc1C(=O)Nc1ccc(C(=O)NCCOCCNC(=O)[C@@H]2C[C@@H](O)CN2)c(Cl)c1` [Example Z40, 5-[1-(5-amino-2-pyridyl)-3-(trifluoromethyl)pyrazol-4-yl]-N-[3-chloro-4-[2-[2-[[(2S,4R)-4-hydroxyprolyl]amino]ethoxy]ethylcarbamoyl]phenyl]-1-methyl-imidazole-2-carboxamide], with 780 nM; and `Cc1nc(-n2cc(-c3cnc(C(=O)Nc4ccc(C(=O)N5CCN(C(=O)C6CCNCC6)CC5)c(Cl)c4)n3C)c(C(F)(F)F)n2)ccc1N` [Example Z86, 5-[1-(5-amino-6-methylpyridin-2-yl)-3-(trifluoromethyl)pyrazol-4-yl]-N-[3-chloro-4-[4-(piperidine-4-carbonyl)piperazine-1-carbonyl]phenyl]-1-methylimidazole-2-carboxamide], with 290 nM. In the case of `Cn1c(-c2cn(-c3ccc(N)cn3)nc2C(F)(F)F)cnc1C(=O)Nc1ccc(C(=O)N2CCC3(CC2)CCN(C(=O)[C@@H]2C[C@@H](O)CN2)C3)c(Cl)c1` [Example Z22, 5-[1-(5-amino-2-pyridyl)-3-(trifluoromethyl)pyrazol-4-yl]-N-[3-chloro-4-[2-[(2S,4R)-4-hydroxyprolyl]-2,8-diazaspiro[4.5]decane-8-carbonyl]phenyl]-1-methyl-imidazole-2-carboxamide], the IC90 came to 510 nM. Under `Cn1c(-c2cn(-c3ccccn3)nc2C(F)(F)F)cnc1C(=O)Nc1ccc(C(=O)N2CCN(C(=O)C3CCNCC3)CC2)c(Cl)c1` [Example A11, N-[3-chloro-4-[4-(piperidine-4-carbonyl)piperazine-1-carbonyl]phenyl]-1-methyl-5-[1-(2-pyridyl)-3-(trifluoromethyl)pyrazol-4-yl]imidazole-2-carboxamide] stands 240 nM; under `Cn1c(-c2cn(-c3ccc(N)cn3)nc2C(F)(F)F)cnc1C(=O)Nc1ccc(C(=O)N2CC3(CC(NC(=O)[C@@H]4C[C@@H](O)CN4)C3)C2)c(Cl)c1` [Example Z25, 5-[1-(5-amino-2-pyridyl)-3-(trifluoromethyl)pyrazol-4-yl]-N-[3-chloro-4-[6-[[(2S,4R)-4-hydroxyprolyl]amino]-2-azaspiro[3.3]heptane-2-carbonyl]phenyl]-1-methyl-imidazole-2-carboxamide], 540 nM.

As to `CC[C@@H]1CNCCN1C(=O)c1ccc(NC(=O)c2ncc(-c3cn(-c4ccc(N)cn4)nc3C(F)(F)F)n2C)cc1Cl` [Example Z63, 5-[1-(5-amino-2-pyridyl)-3-(trifluoromethyl)pyrazol-4-yl]-N-[3-chloro-4-[(2R)-2-ethylpiperazine-1-carbonyl]phenyl]-1-methyl-imidazole-2-carboxamide], the IC90 is 1170 nM. Consider `CC(C)[C@H]1CN(C(=O)c2ccc(NC(=O)c3ncc(-c4cn(-c5ccc(N)cn5)nc4C(F)(F)F)n3C)cc2Cl)CCN1` [Example Z58, 5-[1-(5-amino-2-pyridyl)-3-(trifluoromethyl)pyrazol-4-yl]-N-[3-chloro-4-[(3S)-3-isopropylpiperazine-1-carbonyl]phenyl]-1-methyl-imidazole-2-carboxamide], for which the IC90 was found to be 560 nM.

Turning to `COc1ccc(-n2cc(-c3cnc(C(=O)Nc4ccc(C(=O)N5CCN(C(=O)C6CCNCC6)CC5)c(Cl)c4)n3C)c(C(F)(F)F)n2)cn1` [Example Z75, N-[3-chloro-4-(4-isonipecotoylpiperazine-1-carbonyl)phenyl]-5-[1-(6-methoxy-3-pyridyl)-3-(trifluoromethyl)pyrazol-4-yl]-1-methyl-imidazole-2-carboxamide], the IC90 was 1110 nM. Under `Cn1c(-c2cn(-c3ncc(N)cn3)nc2C(F)(F)F)cnc1C(=O)Nc1ccc(C(=O)N2CCN(C(=O)C3CCNCC3)CC2)c(Cl)c1` [Example A5, 5-[1-(5-aminopyrimidin-2-yl)-3-(trifluoromethyl)pyrazol-4-yl]-N-[3-chloro-4-[4-(piperidine-4-carbonyl)piperazine-1-carbonyl]phenyl]-1-methyl-imidazole-2-carboxamide] stands 1000 nM; under `COCC1CN(C(=O)c2ccc(NC(=O)c3ncc(-c4cn(-c5ccc(N)cn5)nc4C(F)(F)F)n3C)cc2Cl)CCN1` (stereo not drawn) [Example Z69, 5-[1-(5-amino-2-pyridyl)-3-(trifluoromethyl)pyrazol-4-yl]-N-[3-chloro-4-[3-(methoxymethyl)piperazine-1-carbonyl]phenyl]-1-methyl-imidazole-2-carboxamide], 1310 nM.
